Assay results as given in ChEMBL document CHEMBL1142661, “Structure-based drug discovery using GPCR homology modeling: successful virtual screening for antagonists of the alpha1A adrenergic receptor” (J Med Chem, 2005).

Target: T1, Alpha-1A adrenergic receptor (Homo sapiens, UniProt P35348)
T1 sequence (P35348 whole entry): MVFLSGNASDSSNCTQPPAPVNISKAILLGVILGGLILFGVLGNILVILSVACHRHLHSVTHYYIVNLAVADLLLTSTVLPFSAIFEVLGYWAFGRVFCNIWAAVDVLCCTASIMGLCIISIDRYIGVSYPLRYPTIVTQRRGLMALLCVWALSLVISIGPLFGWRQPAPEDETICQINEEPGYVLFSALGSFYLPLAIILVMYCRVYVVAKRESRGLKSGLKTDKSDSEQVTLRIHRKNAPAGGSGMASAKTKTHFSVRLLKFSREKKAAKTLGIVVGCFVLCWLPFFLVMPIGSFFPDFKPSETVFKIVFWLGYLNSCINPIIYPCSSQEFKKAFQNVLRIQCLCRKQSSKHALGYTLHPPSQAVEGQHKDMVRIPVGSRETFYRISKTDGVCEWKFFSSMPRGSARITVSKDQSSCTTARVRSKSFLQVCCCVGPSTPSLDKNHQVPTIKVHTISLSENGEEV
Assay: Inhibition of [3H]prazosin binding to human adrenergic alpha-1A receptor expressed in CHO-K1 cell membranes

Ki [nM]	SMILES
300	Clc1ccc(C2(Cn3ccnc3)OCC(CN3CCN(CCc4ccccc4)CC3)O2)c(Cl)c1 (centres undefined)
3.6	COc1ccccc1N1CCN(CCCNc2cc(O)nc(Nc3c(Cl)cccc3Cl)n2)CC1
9.5	Nc1ccc(C(=O)NCCN2CCC(c3cccc4[nH]ccc34)CC2)cc1
1.4	O=C(NCCCCN1CCN(c2csc3cc(F)ccc23)CC1)c1cnccn1
